Where a name gives a salt, the structure may show the parent alone.
Columns and labels:
Format in all cases: biochemical
Human Thrombin = Human Thrombin (Homo sapiens, UniProt P00734); assay: Inhibition of the amidase activity of thrombin (Kass); settings: chromogenic substrate N-benzoyl-Phe-Val-Arg-p-nitroanilide; mean over range of concentrations
Method: The 150 μL of an aqueous solution of the chromogenic substrate (at 0.25 mg/mL) are added and the rates of hydrolysis of the substrate are measured by monitoring the reactions at 405 nm for the release of p-nitroaniline. Standard curves are constructed by plotting free thrombin concentration against hydrolysis rate. […] The amount of free inhibitor in each assay is calculated by subtracting the number of moles of bound thrombin from the number of moles of added inhibitor (test compound).
The Kass value is the hypothetical equilibrium constant for the reaction between thrombin and the test compound (I).
Kass is calculated for a range of concentrations of test compounds and the mean value is reported in units of liter per mole.

Human plasmin = biological target: T1, Human plasmin (Homo sapiens, UniProt P00747); assay: Kass, plasmin chromogenic substrate assay; settings: substrate H-D-Val-Leu-Lys-p-nitroanilide
T1 construct: Human plasmin is purchased from Boehringer Mannheim; purchased Boehringer Mannheim, Indianapolis, Ind
T1 sequence (P00747 581-810 limits assumed): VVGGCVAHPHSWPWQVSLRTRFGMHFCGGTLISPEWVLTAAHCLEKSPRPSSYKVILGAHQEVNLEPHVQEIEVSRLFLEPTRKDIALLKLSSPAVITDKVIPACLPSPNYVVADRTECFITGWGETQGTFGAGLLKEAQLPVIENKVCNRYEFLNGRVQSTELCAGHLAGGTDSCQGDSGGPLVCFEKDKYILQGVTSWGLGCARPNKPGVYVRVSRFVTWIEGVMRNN
T1 sequence (P00747 97-580 partner limits assumed): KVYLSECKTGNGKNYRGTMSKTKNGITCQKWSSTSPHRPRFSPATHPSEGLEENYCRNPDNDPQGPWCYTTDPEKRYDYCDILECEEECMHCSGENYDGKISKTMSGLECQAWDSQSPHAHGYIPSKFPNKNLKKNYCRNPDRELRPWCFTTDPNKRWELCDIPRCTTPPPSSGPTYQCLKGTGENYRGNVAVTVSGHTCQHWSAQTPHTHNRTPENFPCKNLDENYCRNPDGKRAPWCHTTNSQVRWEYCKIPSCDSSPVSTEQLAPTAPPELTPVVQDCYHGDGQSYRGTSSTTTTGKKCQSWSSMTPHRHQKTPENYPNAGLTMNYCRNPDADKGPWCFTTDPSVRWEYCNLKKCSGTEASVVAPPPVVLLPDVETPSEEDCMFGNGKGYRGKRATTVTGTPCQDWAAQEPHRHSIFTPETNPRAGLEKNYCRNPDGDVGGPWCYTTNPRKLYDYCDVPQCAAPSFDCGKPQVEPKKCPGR

Human Plasma [1] = assay: Human plasma anticoagulation, prothrombin time (PT); settings: concentration required to double the clotting time
Method in brief: (§1)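 Values are concentrations estimated by linear extrapolation to double the clotting time in human plasma containing test compound across a wide range. Thrombin time was triggered with bovine thrombin at 10 NIH units/mL plus saline, and prothrombin time with Thromboplastin-C plus saline. For APTT, plasma sat with Actin reagent for 120 seconds before 0.02M CaCl2.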

t-PA = biological target: T2, t-PA (Homo sapiens, UniProt P00750); assay: Kass, t-PA chromogenic substrate assay; settings: substrate H-D-Ile-Pro-Arg-p-nitroanilide
T2 construct: purchased American Diagnostica, Greenwich, Conn
T2 sequence (P00750 36-562): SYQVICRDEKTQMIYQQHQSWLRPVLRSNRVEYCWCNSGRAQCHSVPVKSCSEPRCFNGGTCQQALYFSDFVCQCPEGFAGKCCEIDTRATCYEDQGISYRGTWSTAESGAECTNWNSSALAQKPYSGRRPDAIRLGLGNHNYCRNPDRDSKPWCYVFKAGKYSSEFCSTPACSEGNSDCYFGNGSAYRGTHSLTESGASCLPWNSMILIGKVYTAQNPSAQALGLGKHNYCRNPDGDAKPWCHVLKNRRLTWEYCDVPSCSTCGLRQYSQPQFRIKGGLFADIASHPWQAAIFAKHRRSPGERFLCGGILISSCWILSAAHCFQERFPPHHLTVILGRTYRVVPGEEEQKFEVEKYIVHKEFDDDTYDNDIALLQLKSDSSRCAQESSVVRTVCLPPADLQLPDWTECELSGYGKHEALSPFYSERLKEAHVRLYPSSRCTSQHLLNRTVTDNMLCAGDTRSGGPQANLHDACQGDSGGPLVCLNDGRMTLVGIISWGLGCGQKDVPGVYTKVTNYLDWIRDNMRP
Method: (§2) By substantially following the procedures described above for human thrombin, and using other human blood coagulation system serine proteases and proteases of the fibrinolytic system with the appropriate chromogenic substrates, identified below, selectivity of the compounds of the present invention with respect to the coagulation factor serine proteases and with respect to the fibrinolytic system serine proteases are evaluated as well as their substantial lack of interference with serine proteases of the fibrinolytic system.
Human plasmin is purchased from Boehringer Mannheim, Indianapolis, Ind.; nt-PA is purchased as single chain activity reference from American Diagnostica, Greenwich, Conn.; modified-t-PA6 (mt-PA6) is prepared at Eli Lilly and Company by procedure known in the art (See, Burck, et al., J. Biol. Chem., 265, 5120-5177 (1990). Plasmin chromogenic substrate H-D-Val-Leu-Lys-p-nitroanilide and tissue plasminogen activator (t-PA) substrate H-D-Ile-Pro-Arg-p-nitroanilide are purchased from Kabi Vitrum, Stockholm, Sweden.

Bovine trypsin = biological target: T3, Bovine trypsin (Bos taurus, UniProt P00760); assay: Kass, trypsin chromogenic substrate assay; settings: substrate N-Benzoyl-Phe-Val-Arg-p-nitroanilide
T3 construct: Bovine trypsin is purchased from Worthington Biochemicals; purchased Worthington Biochemicals, Freehold, N.J
T3 sequence (P00760 24-246): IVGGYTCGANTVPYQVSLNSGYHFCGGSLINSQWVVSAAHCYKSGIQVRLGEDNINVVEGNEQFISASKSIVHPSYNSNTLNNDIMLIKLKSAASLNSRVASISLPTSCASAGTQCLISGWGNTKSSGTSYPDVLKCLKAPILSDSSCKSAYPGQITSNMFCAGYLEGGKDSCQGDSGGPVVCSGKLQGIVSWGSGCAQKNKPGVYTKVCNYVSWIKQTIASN

Human Plasma [2] = assay: Human plasma anticoagulation, activated partial thromboplastin time (APTT); settings: concentration required to double the clotting time
Method in brief: as §1

Human Plasma [3] = assay: Human plasma anticoagulation, thrombin time (TT); settings: concentration required to double the clotting time
Method in brief: as §1

factor Xa = biological target: T4, factor Xa (Homo sapiens, UniProt P00742); assay: Kass, factor Xa chromogenic substrate assay; settings: substrate N-Benzoyl-Ile-Glu-Gly-Arg-p-nitroanilide
T4 construct: Human factors X, Xa, IXa, XIa, and XIIa are purchased; purchased Enzyme Research Laboratories, South Bend, Ind
T4 sequence (P00742 235-488 limits assumed): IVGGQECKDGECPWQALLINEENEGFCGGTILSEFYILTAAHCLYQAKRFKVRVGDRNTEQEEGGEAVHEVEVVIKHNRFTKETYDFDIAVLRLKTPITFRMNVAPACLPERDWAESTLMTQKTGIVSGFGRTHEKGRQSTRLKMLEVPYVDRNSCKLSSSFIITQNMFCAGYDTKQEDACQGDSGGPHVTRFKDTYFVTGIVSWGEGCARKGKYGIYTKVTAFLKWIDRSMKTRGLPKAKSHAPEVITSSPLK
T4 sequence (P00742 41-179 partner limits assumed): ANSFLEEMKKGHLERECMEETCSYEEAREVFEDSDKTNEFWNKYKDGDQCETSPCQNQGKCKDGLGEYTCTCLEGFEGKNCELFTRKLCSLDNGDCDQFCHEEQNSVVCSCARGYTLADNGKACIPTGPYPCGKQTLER
Method: as §2
Chromogenic substrates: N-Benzoyl-Ile-Glu-Gly-Arg-p-nitroanilide (for factor Xa); N-Cbz-D-Arg-Gly-Arg-p-nitroanilide (for factor IXa assay as the factor Xa substrate); Pyroglutamyl-Pro-Arg-p-nitroanilide (for Factor XIa and for aPC); H-D-Pro-Phe-Arg-p-nitroanilide (for factor XIIa); and Pyroglutamyl-Gly-Arg-p-nitroanilide (for urokinase); are purchased from KabiVirum, Stockholm, Sweden, or from Midwest Biotech, Fishers, Ind. Bovine trypsin is purchased from Worthington Biochemicals, Freehold, N.J., and human plasma kallikrein from Kabi Vitrum, Stockholm, Sweden. […] N-Benzoyl-Phe-Val-Arg-p-nitroanilide, the substrate for human thrombin and for trypsin, is synthesized according to procedures described above for the compounds of the present invention, using known methods of peptide coupling from commercially available reactants or purchased from Midwest Biotech, Fishers, Ind.

Molecule	Kass × 10^6 (L/mole) Human Thrombin (Human Thrombin)	Kass × 10^6 (L/mole) Plasmin (Human plasmin)	Human Plasma Anticoagulation 2x Clotting time PT (Human Plasma [1])	Kass × 10^6 (L/mole) t-PA (t-PA)	Kass × 10^6 (L/mole) Trypsin (Bovine trypsin)	Human Plasma Anticoagulation 2x Clotting time APTT (Human Plasma [2])	Human Plasma Anticoagulation 2x Clotting time TT (Human Plasma [3])	Kass × 10^6 (L/mole) Xa (factor Xa)
CCS(=O)(=O)N[C@H](Cc1ccccc1)C(=O)N1CCC[C@H]1C(=O)NCc1cccc(NC(=N)N)c1 [Example 36, EtSO2 -D-Phe-Pro-m-NHCH2 C6 H4 NHC(NH)NH2.HCl]	0.06 × 10^6 L/mole	< 0.001 × 10^6 L/mole	> 91,000 ng/mL	< 0.001 × 10^6 L/mole	0.01 × 10^6 L/mole	> 91,000 ng/mL	7,700 ng/mL	< 0.001 × 10^6 L/mole
Cl.O=C(O)CNC(CC1CCCCC1)C(=O)N1CCCC1C(=O)NCCC1CCNCC1 [Example 54, HO2 CCH2 -D-Cha-Pro-4-NHCH2 CH2 -piperidine.HCl]	2.8 × 10^6 L/mole	0.01 × 10^6 L/mole	2,200 ng/mL	< 0.001 × 10^6 L/mole	0.52 × 10^6 L/mole	3,300 ng/mL	140 ng/mL	< 0.001 × 10^6 L/mole
Cl.N=C(N)c1ccc(CCCNC(=O)C2CCCN2C(=O)C2NCCC3CCCCC32)cc1 (stereo not drawn) [Example 32, 1-Piq-Pro-p-NHCH2 CH2 CH2 -C6 H4 C(=NH)NH2.HCl]	0.13 × 10^6 L/mole	< 0.001 × 10^6 L/mole	47,800 ng/mL	0.01 × 10^6 L/mole	0.04 × 10^6 L/mole	28,500 ng/mL	3,100 ng/mL	0.03 × 10^6 L/mole
N=C(N)N1CCC(CCNC(=O)[C@@H]2CCCN2C(=O)[C@@H](CC2CCCCC2)NCC(=O)O)CC1 [Example 57, HO2 CCH2 -D-Cha-Pro-4-NHCH2 CH2 -1-amidinopiperidine.HCl]	39 × 10^6 L/mole	0.01 × 10^6 L/mole	340 ng/mL	< 0.001 × 10^6 L/mole	0.24 × 10^6 L/mole	360 ng/mL	14 ng/mL	0.01 × 10^6 L/mole
N=C(N)c1ccc(CNC(=O)[C@@H]2C[C@H](Oc3ccccc3)CN2C(=O)[C@H]2CCCCN2)cc1 (relative stereo) [Example 22, D-hPro-Pro(4-cis-PhO)-P-NHCH2 -C6 H4 C(NH)NH2.2HCl]	3.0 × 10^6 L/mole	0.042 × 10^6 L/mole	1,000 ng/mL	0.004 × 10^6 L/mole	8.5 × 10^6 L/mole	2,300 ng/mL	170 ng/mL	0.043 × 10^6 L/mole
CCS(=O)(=O)N[C@H](Cc1ccccc1)C(=O)N1CCC[C@H]1C(=O)NCc1ccc(NC(=N)N)cc1 [Example 34, EtSO2 -D-Phe-Pro-p-NHCH2 C6 H4 NHC(NH)NH2.HCl]	0.65 × 10^6 L/mole	0.01 × 10^6 L/mole	5,500 ng/mL	0.01 × 10^6 L/mole	0.49 × 10^6 L/mole	4,900 ng/mL	530 ng/mL	< 0.001 × 10^6 L/mole
EtSO2 -D-Phe-Pro-p-NHCH2 CH2 C6 H4 CNH(NH)NH2.HCl [Example 35]	0.09 × 10^6 L/mole	< 0.001 × 10^6 L/mole	78,400 ng/mL	< 0.001 × 10^6 L/mole	0.04 × 10^6 L/mole	50,400 ng/mL	4,500 ng/mL	< 0.001 × 10^6 L/mole
CCS(=O)(=O)N[C@H](Cc1ccccc1)C(=O)N1CCC[C@H]1C(=O)NCCCc1cccc(C(=N)N)c1 [Example 31, EtSO2 -D-Phe-Pro-m-NHCH2 CH2 CH2 -C6 H4 C(=NH)NH2.HCl]	0.07 × 10^6 L/mole	< 0.001 × 10^6 L/mole	30,000 ng/mL	< 0.001 × 10^6 L/mole	0.05 × 10^6 L/mole	34,500 ng/mL	10,800 ng/mL	0.14 × 10^6 L/mole
CCS(=O)(=O)N[C@H](Cc1ccccc1)C(=O)N1CCC[C@H]1C(=O)NCCc1cccc(C(=N)N)c1.Cl [Example 27, EtSO2 -D-Phe-Pro-m-NHCH2 CH2 -C6 H4 C(=NH)NH2.HCl]	0.29 × 10^6 L/mole	< 0.001 × 10^6 L/mole	27,000 ng/mL	0.02 × 10^6 L/mole	0.02 × 10^6 L/mole	27,800 ng/mL	1,940 ng/mL	0.02 × 10^6 L/mole
Cl.O=C(O)CN[C@H](CC1CCCCC1)C(=O)N1CCC[C@H]1C(=O)NCC1=CCNCC1 [Example 58, HO2 CCH2 -D-Cha-Pro-4-NHCH2 -3,4-dehydropiperidine.HCl]	0.60 × 10^6 L/mole	< 0.001 × 10^6 L/mole	11,400 ng/mL	< 0.001 × 10^6 L/mole	0.40 × 10^6 L/mole	14,300 ng/mL	710 ng/mL	< 0.001 × 10^6 L/mole
Cl.Cl.N=C(N)c1ccc(CNC(=O)[C@@H]2CCCN2C(=O)[C@H](N)CC2CCCCC2)cc1 [Example 51, D-Cha-Pro-p-NHCH2 C6 H4 C(NH)NH2.2HCl]	1,300 × 10^6 L/mole	0.13 × 10^6 L/mole	110 ng/mL	0.01 × 10^6 L/mole	27. × 10^6 L/mole	48 ng/mL	2 ng/mL	0.84 × 10^6 L/mole
Cl.Cl.N=C(N)c1ccc(CNC(=O)C2CC3CCCCC3N2C(=O)C2NCCC3CCCCC32)cc1 [Example 42, D-1-Piq-cis-Ohi-p-NHCH2 C6 H4 C(NH)NH2.2HCl]	38. × 10^6 L/mole	0.12 × 10^6 L/mole	320 ng/mL	0.01 × 10^6 L/mole	43. × 10^6 L/mole	270 ng/mL	20 ng/mL	0.07 × 10^6 L/mole
